# Measured values taken from PubChem BioAssay AID1645868 (Buhrlage Lab, Dana-Farber Cancer Institute and Novartis …, 2021).
# Active and inactive are the calls of the source.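 How the source made its calls: active means maximal percent inhibition of the deubiquitinase OTUD3 of at least 30% across the tested doses; inactive means the rest.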
# Biological target: OTU domain-containing protein 3 (Homo sapiens) (UniProt Q5T2D3)
# Experiment: Validation of screening hits, potency titration, in vitro enzymatic, OTU domain-containing protein 3 DUB inhibitors (AID 1645868)
# Conditions: purified OTUD3, ubiquitin-rhodamine cleavage fluorescence, 2 h
# OTU domain-containing protein 3 (Homo sapiens), sequence (Q5T2D3 whole entry, looked up, the tested form may be a part): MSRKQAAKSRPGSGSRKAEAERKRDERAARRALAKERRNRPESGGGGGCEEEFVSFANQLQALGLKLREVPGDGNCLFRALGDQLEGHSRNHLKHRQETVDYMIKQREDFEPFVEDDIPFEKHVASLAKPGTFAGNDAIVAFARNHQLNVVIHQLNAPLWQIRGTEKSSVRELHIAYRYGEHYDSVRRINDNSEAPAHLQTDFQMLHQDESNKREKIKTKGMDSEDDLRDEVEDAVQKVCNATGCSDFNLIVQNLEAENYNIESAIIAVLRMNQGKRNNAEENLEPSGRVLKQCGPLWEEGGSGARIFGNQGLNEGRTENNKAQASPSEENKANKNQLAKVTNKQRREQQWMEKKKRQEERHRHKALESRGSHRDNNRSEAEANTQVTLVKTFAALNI
row,SMILES,IC50
1,CCN(C(=O)c1cc2c(s1)-c1ccccc1OC2)c1ccccc1F,> 50 µM (inactive)
2,O=C(NCc1ccc(CN2CCCC2)cc1)c1cc2ccccc2[nH]c1=O,> 50 µM (inactive)
3,Cc1ccc(CSC2=NS(=O)(=O)c3ccccc3N2)cc1,> 50 µM (inactive)
4,CCN(CCCNC(=O)c1ccc(Cn2c(=O)[nH]c3ccccc3c2=O)cc1)c1ccccc1,17.4 µM
5,CCCc1nc2sc3c(NCCc4ccc(OC)c(OC)c4)ncnc3c2c2c1CCC2,> 50 µM (inactive)
6,Cc1c(CC(=O)Nc2nn[nH]n2)c(=O)oc2cc3c(cc12)CCC1(CCCCC1)O3,> 50 µM (inactive)
7,CCOc1ccc(NC(=O)c2cc(-c3ccccc3)c(N3CCOCC3)s2)cc1,27.2 µM
8,Cc1ccc(C(=O)N2CCCC3(C2)Nc2cccnc2NC3=NC2CCCC2)s1 (stereo not drawn),> 50 µM (inactive)
9,O=C(COc1ccc(Cl)cc1)Nc1noc(-c2ccccc2)n1,29.2 µM
10,Cc1ccccc1-c1noc(-c2ccccc2OCC(=O)NC(C)C)n1,> 50 µM (inactive)
11,COc1ccc2cc1Oc1cc(ccc1OC)C(O)C13SSC4(C(=O)N1C)C(O)C1=COC=CC(OC2=O)C1N4C3=O (stereo not drawn),> 50 µM (inactive)
12,CCc1noc(Cn2cnc3c4ccccc4n(CC(=O)NC4CCCCC4)c3c2=O)n1,> 50 µM (inactive)
13,O=C(Nc1ccc(Cl)cc1F)c1cc(-c2ccccn2)n[nH]1,> 50 µM (inactive)
14,O=C1NCc2c1c1c3ccccc3[nH]c1c1[nH]c3ccccc3c21,> 50 µM (inactive)
15,O=C(Nc1ccc2c(c1)OCCO2)C1CCN(C(=O)c2cc(-c3cccnc3)n[nH]2)CC1,> 50 µM (inactive)
16,Clc1cc2nc(N3CCN(c4ccccn4)CC3)c3nncn3c2cc1Cl,4.78 µM
17,Cc1cc(C2CC(=O)Nc3c2c(C)nn3-c2nc3ccccc3[nH]2)c(C)s1 (stereo not drawn),> 50 µM (inactive)
18,CCCCn1c(=O)c(CCC(=O)OCC(=O)Nc2ccc3c(c2)OCCO3)nc2ccccc21,> 50 µM (inactive)
19,Cc1ccc(Nc2nc(C(=O)NCc3ccc4c(c3)OCO4)cc3occc23)cc1Cl,> 50 µM (inactive)
20,O=C(Cn1c(=O)n(Cc2ccc3c(c2)OCO3)c(=O)c2ncccc21)c1ccc(Cl)cc1,33.9 µM
21,Cc1ccc(Nc2nc(Nc3cccc(Cl)c3)nc3nccnc23)cc1,> 50 µM (inactive)
22,O=C(/C=C/c1c(F)cccc1Cl)N1CCc2ccccc2C1,> 50 µM (inactive)
23,CC(C)NC(=O)[C@H](Cc1ccccc1)NC(=O)N1CCn2c1nc1ccccc12,> 50 µM (inactive)
24,COc1ccc(-c2nc(Cn3nnc(C(=O)Nc4ccc(C)cc4C)c3N)c(C)o2)cc1,> 50 µM (inactive)
25,O=C1C=C(O)c2c(O)cccc2C1=O,25.5 µM
26,CCN(CC)c1cc(C)c2cc(NC(=O)c3ccncc3)ccc2n1,> 50 µM (inactive)

# Further lines, results first:
row,IC50,SMILES
1,> 50 µM (inactive),CC(C)OC(=O)c1cc2c(ccn2-c2ccc(F)cc2)n1CC(=O)NC1CCCCC1
2,27.7 µM,Cc1cccc(-n2ccnc(SCC(=O)Nc3ccc(Cl)cc3F)c2=O)c1
3,> 50 µM (inactive),Cc1ccc2cc(CCNC(=O)c3cccc(Br)c3)c(=O)[nH]c2c1
4,32.8 µM,Cc1cccc(OCCn2c(CCNC(=O)C3CCCCC3)nc3ccccc32)c1
5,> 50 µM (inactive),Fc1cccc(Cn2cc(-c3noc(-c4cccnc4)n3)nn2)c1
6,> 50 µM (inactive),N#Cc1ccc(NC(=O)c2ccc(S(=O)(=O)N3CCCCC3)cc2)cc1
7,> 50 µM (inactive),C=C1CCC2[C@](C)(CCC[C@]2(C)C(=O)OC)[C@H]1CCc1ccoc1/C=C/C(=O)O (stereo partly drawn)
8,> 50 µM (inactive),COc1ccc(C(=O)N2CCCC3(C2)Nc2cccnc2NC3=NC2CCCC2)cn1 (stereo not drawn)
9,> 50 µM (inactive),CCCn1c(=O)n(CC(=O)c2ccccc2F)c2c(C(N)=O)nc(-c3ccco3)nc21
10,> 50 µM (inactive),Cc1ccccc1C(=O)Nc1ccc(Cc2ccc(NC(=O)c3ccccc3C)c(O)c2)cc1O
11,> 50 µM (inactive),COC1=CC(=O)c2c(O)c(C)c(CC(C)=O)c(O)c2C1=O
12,39.6 µM,CSc1cccc(NC(=O)COc2cccc3ccccc23)c1
